In patent US20020082452A1, “alpha-sulfin-and alpha-sulfonamino acid amides” (priority 1998, published 2002):

Assays:
Format in all cases: in vivo
Plasmopara viticola = assay: D-1: Action against Plasmopara viticola on vines (residual-protective and residual-curative action); conditions: vine seedlings, spray mixture 0.02% active ingredient, evaluated after 6 days at 95-100% relative humidity and 20° C.
Protocol: D-1: Action against Plasmopara viticola on Vines a) Residual-Protective Action
Vine seedlings are sprayed at the 4- to 5-leaf stage with a spray mixture (0.02% active ingredient) prepared from a wettable powder formulation of the test compound. After 24 hours, the treated plants are infected with a sporangia suspension of the fungus. Fungus infestation is evaluated after incubation for 6 days at 95-100% relative humidity and 20° C. […]
b) Residual-Curative Action
Vine seedlings are infected at the 4- to 5-leaf stage with a sporangia suspension of the fungus. After incubation for 24 hours in a humidity chamber at 95-100% relative humidity and 20° C., the infected plants are dried and sprayed with a spray mixture (0.02% active ingredient) prepared from a wettable powder formulation of the test compound. After the spray coating has dried, the treated plants are placed in the humidity chamber again. Fungus infestation is evaluated 6 days after infection. […] Compounds A1.02, A1.03, A1.04, A1.03, A1.5, A1.06, A1.07, A1.09, A1.10, A1.13, A1.14, A1.15, A1.16, A1.21, A1.23.

Phytophthora [1] = assay: D-3: Action against Phytophthora on potato plants (residual-protective and systemic action); conditions: potato plants (Bintje variety), spray mixture 0.02% active ingredient (sprayed or watered), evaluated after 4 days at 90-100% relative humidity and 20° C.
Protocol: D-3 Action Against Phytophthora on Potato Plants
(§1) a) Residual-Protective Action
(§2) 2-3 week old potato plants (Bintje variety) are sprayed with a spray mixture (0.02% active ingredient) prepared from a wettable powder formulation of the test compound. After 48 hours, the treated plants are infected with a sporangia suspension of the fungus. Fungus infestation is evaluated after incubation of the infected plants for 4 days at 90-100% relative humidity and 20° C.
as §2, with “watered” for “sprayed”, “ingredient based on the volume of the soil)” for “ingredient)”, “compound. […]” for “compound.”, “C. Fungal infestation is effectively controlled with compounds of Tables 1 to 37. Compounds A1.02, A1.03, A1.04, A1.03, A1.05, A1.06, A1.07, A1.09, A1.10, A1.13, A1.14, A1.15, A1.16, A1.21, A1.23.” for “C.”

Phytophthora [2] = assay: D-2: Action against Phytophthora on tomato plants (residual-protective and systemic action); conditions: spray mixture 0.02% active ingredient (sprayed or watered), evaluated after 4-5 days at 90-100% relative humidity and 20° C.
Protocol: D-2: Action Against Phytophthora on Tomato Plants
as §1
(§3) After a cultivation period of 3 weeks, tomato plants are sprayed with a spray mixture (0.02% active ingredient) prepared from a wettable powder formulation of the test compound. After 48 hours, the treated plants are infected with a sporangia suspension of the fungus. Fungus infestation is evaluated after incubation of the infected plants for 5 days at 90-100% relative humidity and 20° C.
as §3, with “watered” for “sprayed”, “ingredient based on the volume of the soil)” for “ingredient)”, “compound. […]” for “compound.”, “96” for “48”, “4” for “5”, “C. […] Compounds A1.02, A1.03, A1.04, A1.03, A1.05, A1.06, A1.07, A1.09, A1.10, A1.13, A1.14, A1.15, A1.16, A1.21, A1.23.” for “C.”

Measured: Fungus infestation

CC[C@H](NS(=O)(=O)CC)C(=O)NCCc1ccc(OCCOc2ccc(F)cc2)c(OC)c1 [Compound A1.05]
completely inhibit fungal infestation: all assays above

CCC[C@H](NS(=O)(=O)CC)C(=O)NCCc1ccc(OCCOc2ccccc2)c(OC)c1 [Compound A1.09]
completely inhibit fungal infestation: all assays above

COc1cc(CCNC(=O)[C@@H](NS(C)(=O)=O)C(C)C)ccc1OCCOc1cccc(F)c1 [Compound A1.76]
completely inhibit fungal infestation: all assays above

COc1cc(CCNC(=O)[C@@H](NS(C)(=O)=O)C(C)C)ccc1OCCSc1ccc(Cl)cc1 [Compound A1.78]
completely inhibit fungal infestation: all assays above

COc1cc(CCNC(=O)[C@@H](NS(C)(=O)=O)C(C)C)ccc1OCCOc1ccccc1 [Compound A1.07]
completely inhibit fungal infestation: all assays above

COc1cc(CCNC(=O)[C@@H](NS(C)(=O)=O)C(C)C)ccc1OC/C=C/c1ccccc1F [Compound A2.10]
completely inhibit fungal infestation: all assays above

CCS(=O)(=O)N[C@H](C(=O)NCCc1ccc(OCCOc2ccc(C)cc2)c(OC)c1)C(C)C [Compound A1.24]
completely inhibit fungal infestation: all assays above

CCS(=O)(=O)N[C@H](C(=O)NCCc1ccc(OCCOc2cccc(F)c2)c(OC)c1)C(C)C [Compound A1.23]
completely inhibit fungal infestation: all assays above

CC[C@H](NS(=O)(=O)CC)C(=O)NCCc1ccc(OCCOc2ccccc2)c(OC)c1 [Compound A1.10]
completely inhibit fungal infestation: all assays above

CCS(=O)(=O)N[C@H](C(=O)NCCc1ccc(OCCOc2ccccc2)c(OC)c1)C(C)C [Compound A1.06]
completely inhibit fungal infestation: all assays above

CCS(=O)(=O)N[C@H](C(=O)NCCc1ccc(OC/C=C/c2ccc(Cl)cc2)c(OC)c1)C(C)C [Compound A2.03]
completely inhibit fungal infestation: all assays above

CCS(=O)(=O)N[C@H](C(=O)NCCc1ccc(OC/C=C\c2ccccc2)c(OC)c1)C(C)C [Compound A3.02]
completely inhibit fungal infestation: all assays above

CC[C@H](NS(=O)(=O)CC)C(=O)NCCc1ccc(OCCOc2ccc(Cl)cc2)c(OC)c1 [Compound A1.15]
completely inhibit fungal infestation: all assays above

COc1cc(CCNC(=O)[C@@H](NS(C)(=O)=O)C(C)C)ccc1OC/C=C/c1ccc(Cl)cc1 [Compound A2.04]
completely inhibit fungal infestation: all assays above

CCC[C@H](NS(=O)(=O)CC)C(=O)NCCc1ccc(OCCOc2ccc(Cl)cc2)c(OC)c1 [Compound A1.16]
completely inhibit fungal infestation: all assays above

COc1cc(CCNC(=O)[C@@H](NS(C)(=O)=O)C(C)C)ccc1OCCOc1ccc(Cl)cc1 [Compound A1.14]
completely inhibit fungal infestation: all assays above

COc1cc(CCNC(=O)[C@@H](NS(C)(=O)=O)C(C)C)ccc1OC/C=C/c1ccc(Br)cc1 [Compound A2.16]
completely inhibit fungal infestation: all assays above

COc1cc(CCNC(=O)[C@@H](NS(C)(=O)=O)C(C)C)ccc1OCCOc1ccc(Cl)c(Cl)c1 [Compound A1.75]
completely inhibit fungal infestation: all assays above

CCS(=O)(=O)N[C@H](C(=O)NCCc1ccc(OCCOc2ccccc2Cl)c(OC)c1)C(C)C [Compound A1.21]
completely inhibit fungal infestation: all assays above

COc1cc(CCNC(=O)[C@@H](NS(=O)(=O)N(C)C)C(C)C)ccc1OCCOc1ccc(F)cc1 [Compound A1.03]
completely inhibit fungal infestation: all assays above

CCS(=O)(=O)N[C@H](C(=O)NCCc1ccc(OC/C=C/c2ccccc2F)c(OC)c1)C(C)C [Compound A2.09]
completely inhibit fungal infestation: all assays above

COc1cc(CCNC(=O)[C@@H](NS(C)(=O)=O)C(C)C)ccc1OCCOc1ccc(F)cc1 [Compound A1.02]
completely inhibit fungal infestation: all assays above

CCS(=O)(=O)N[C@H](C(=O)NCCc1ccc(OCCOc2ccc(Cl)cc2)c(OC)c1)C(C)C [Compound A1.13]
completely inhibit fungal infestation: all assays above

C#CCC(NS(=O)(=O)CC)C(=O)NCCc1ccc(OCC=Cc2ccc(Cl)cc2)c(OC)c1 (racemic) [Compound A1.108]
completely inhibit fungal infestation: all assays above

CCC[C@H](NS(=O)(=O)CC)C(=O)NCCc1ccc(OCCOc2ccc(F)cc2)c(OC)c1 [Compound A1.04]
completely inhibit fungal infestation: all assays above

COc1cc(CCNC(=O)C(NS(C)(=O)=O)C(C)C)ccc1OC(C)COc1ccc(Cl)cc1 (mixture of isomers) [Compound A1.80]
completely inhibit fungal infestation: all assays above
